Data published in patent publication US4701456A, “Aminoalkoxybenzopyranones as antipsychotic and anxiolytic agents” (Warner-Lambert Company, priority 1985, dated 1987).
pIC50: −log10 of the molar value. Read-outs that look alike come from different tables or passages of the source. Values belong to the compound of their own block, whether it stands above or below them.

Assays:
[1] = tested on: mature male hooded rats (Long-Evans strain); test: animal model of anxiety based on the Geller-Seifter conflict test; format: in vivo; settings: for Total Punished Responses, Test: four rats
Excerpt: The compounds of the present invention are new chemical substances which are also useful as pharmaceutical agents for the treatment of anxiety, i.e., anxiolytic agents. The antianxiety activity of a representative compound showing such activity for the compounds of the Formula I of the present invention is established by the use of an animal model of anxiety based on the Geller-Seifter conflict test described in Psychopharmacologia 1:482 (1960). Particularly the test follows initial shaping of response, an experimental conflict is induced, with animals trained until stable performance is established. Each animal serves as his own control. A description of the test is as follows:
Subjects: Mature male hooded rats (Long-Evans strain) 300-350 g body weight.
Apparatus: The experimental chamber consists of an inner test compartment with a lever mounted in one wall, a grid floor, an automatic feeding device, and a speaker. This chamber is enclosed by a sound insulated cubicle. Shock is provided by a LVE Model 1531 Constant Current SHocker. White (masking) noise is supplied by a LVE Model 1524 Noise Generator. A tone is produced by a LVE Model 1664 4.5 KC Tone Generator. All events and recordings are automatic and are programmed with appropriate electric timers and relay devices.
Procedure: Variable interval (VI)=two-minute; trial periods=four; shock=0.6 to 0.8 ma; food reward=Borden's Sweetened Condensed Milk diluted two parts water to one part milk; animals are deprived to 70% of their free feeding weight and are 23 hours starved; session length=one hour and 12 minutes.
The conflict is induced in the following manner: hungry rats are conditioned to press a lever to obtain a food reward. Reinforcement is contingent upon a lever press and occurs at variable intervals on the average of once every two minutes--VI two-minute (See Ferster; C. B., and Skinner, B. F., "In Schedules of Reinforcement, " Appleton-Century-Crofts,New York, 1957).
Spaced at regular intervals throughout the experimental session are four three-minute periods. During these trial periods a tone signals that every lever press will be food reinforced (CRF) and simultaneously punished by a painful electric foot shock.
In other words, food-deprived rats are trained to depress a lever in order to obtain food (sweetened condensed milk). Normally, the rats perform on a variable interval (VI) schedule on which a lever press results in food delivery on the average of once every two minutes; the time between successive periods of food availability is varied continuously such that animals respond at low but steady rates to obtain occasional access to food. After animals perform for 12 minutes on this schedule the house lights are extinguished and two small stimulus lights are illuminated, signaling the availability of food for each depression of the lever during a three minute trial period. During the trial, each depression of the lever also results in the delivery of mild electric shock (0.8 ma, 0.25 second duration) delivered through the grid floor (punishment). Thus, an approach-avoidance conflict is established with associated anxiety: food is readily available for each response, but each respone is punished (see Miller, N. E., "Some Recent Studies of Conflict Behavior and Drugs," Am. Pharmacologist, 16: 12, 1961). The scheduled used in our test employed four successive trials, each preceded by a 12-minute period during which the food-reinforced VI was in effect.
During sessions in which no drug is administered, rats normally respond at steady rates on the VI component but emit very few responses during the punished trial period.
The total number of punished responses made by the four subjects in the pretest and test sessions for the noted compound are as follows.
The pretest responses are cummulative responses emitted during the three minute tests from a previous nondrug session. […]

Swiss-Webster male mice = test: Mouse Activity and Screen Test Procedure (MAST); format: in vivo; settings: ip, 1 h, intraperitoneal, one hour prior to testing, active = rating A at 100 mg/kg or less, read-out: Dose at which an overall dose rating of A was obtained
Excerpt: The compounds of the present invention are new chemical substances which are useful as pharmaceutical agents for the treatment of psychoses such as, for example, schizophrenia. The antipsychotic activity of representative compounds of the invention was established by the Mouse Activity and Screen Test Procedure (MAST) described below:
ANIMALS: Nine unfasted Swiss-Webster male mice (Buckberg Labs) weighing 20-30 g are equally divided into three groups for each drug dose to be tested. That is, data for each dose level was generated by three separate groups of three mice each.
DRUGS: A minimum of three dose levels (10, 30, and 100 mg/kg) are tested for each drug. Treatments are administered intraperitoneally one hour prior to testing. All dosages are calculated as parent compound and given in volumes of […]. Compounds are dissolved or suspended in 0.2% Methocel. Control animals are injected with Methocel.
TESTING: A two-part testing procedure is started one hour postinjection. First, the screen test is performed (see Pharmac Biochem Behav 6, 351-353, 1977). Briefly, this test consists of placing mice on individual wire screens which are then rotated 180° at the start of a 60-second observation period. The number of mice falling off the inverted screen is recorded.
Immediately following the screen test, the final phase of testing is initiated by placing each group of three mice in one actophotometer (Life Sciences, 22, 1067-1076, 1978). The actophotometer consists of a cylindrical chamber whose center is occupied by another cylinder which contains the illumination for six photocells located on the perimeter of the chamber. Six light-beam interruptions equal one count. Locomotor activity is recorded by computer at ten-minute intervals for 60 minutes.
DATA: The data obtained from the screen test are expressed as percent of mice falling off the screen. Data derived from locomotor activity of drug-treated mice are compared to the activity of vehicle-treated animals and are expressed as percent inhibition of spontaneous locomotion. All percentages reported for inhibition of locomotion are based upon data accumulated for one hour. Both phases of testing are graded: A=60-100%; C=31-59%; and N=0-30%. An overall dose rating is obtained by the following criteria. […]
______________________________________
Inhibition of Screen Test Dose
Locomotion rating with Failure Rating
Utilizing this procedure, an overall dose rating of A was obtained for the noted compounds at the indicated dose as reported in Table 1.

dopamine receptors = dopamine receptors (Rattus norvegicus, UniProt P61169); test: [3H] haloperidol binding assay (HRBA); design: species or system Long-Evans hooded rats; settings: displacement of [3H] haloperidol (0.6 nM), rat striatal membranes, pH 7.6, 25° C., 40 minutes
Chain of dopamine receptors (P61169 whole entry): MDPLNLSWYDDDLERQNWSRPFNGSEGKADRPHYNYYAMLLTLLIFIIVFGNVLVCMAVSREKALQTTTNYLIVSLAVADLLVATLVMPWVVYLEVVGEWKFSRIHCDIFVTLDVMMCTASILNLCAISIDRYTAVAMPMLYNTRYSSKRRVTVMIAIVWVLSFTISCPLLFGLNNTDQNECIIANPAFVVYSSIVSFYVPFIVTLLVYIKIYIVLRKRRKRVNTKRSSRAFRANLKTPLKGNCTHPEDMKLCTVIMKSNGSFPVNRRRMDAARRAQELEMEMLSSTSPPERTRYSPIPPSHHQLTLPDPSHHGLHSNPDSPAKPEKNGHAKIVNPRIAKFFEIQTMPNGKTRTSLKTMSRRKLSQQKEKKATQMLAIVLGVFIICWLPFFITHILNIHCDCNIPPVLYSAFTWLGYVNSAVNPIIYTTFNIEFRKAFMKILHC
Procedure: [^3 H] Haloperidol Binding Assay. The relative affinities of compounds for dopamine receptors were evaluated on the basis of their ability to displace [^3 H] haloperidol from striatal membranes prepared from Long-Evans hooded rats. Rats were decapitated; the brains were removed, and the corpus striata were dissected. The corpus striata were homogenized in 40 volumes of […] Tris buffer (pH 7.6) and centrifuged. Pellets were rehomogenized in 50 volumes of the same buffer and used for the binding assay. Incubations were carried out in 10 ml of […] Tris-HCl buffer (pH 7.6) containing 2 mg/ml of original wet tissue weight of homogenate, 100 μl of test agent or solvent, and 0.6 nM of [^3 H] haloperidol. Nonspecific binding was determined in the presence of 0.1 μM (+)-butaclamol. Samples were incubated in reciprocating water bath at 25° C. for 40 minutes. Incubation was terminated by rapid filtration under reduced pressure through glass fiber filters (Whatman GF/B). The filters were rinsed three times with 10 ml of Tris-HCl buffer. The filters were placed in 10 ml of scintillation coctail (Beckman Ready-Solv HP) and shaken for one hour. Radioactivity retained on the filter was determined by liquid scintillation spectrophotometry. Compounds were initially evaluated at 10 nM. IC50 s when determined were calculated from a nonlinear computer curve, fit on the data from four or more concentrations, each done in triplicate.

Structure (SMILES): O=c1ccc2ccc(OCCCN3CCN(c4ncccn4)CC3)cc2o1 [7-[3-[4-(2-pyrimidinyl)-1-piperazinyl]propoxy]-2H-1-benzopyran-2-one]
responding during trial periods ([1]; 27.5 mg/kg PO (no increase)): not at 27.5 mg/kg PO | Total Punished Responses, Test ([1]; 27.5 mg/kg PO, Pretest (nondrug session) 39): 44 | Total Punished Responses, Test ([1]; 55 mg/kg PO, Pretest (nondrug session) 78): 147 | rats with increases in punished responding ([1]; 80 mg/kg): four of four rats | Total Punished Responses, Test ([1]; 80 mg/kg PO, Pretest (nondrug session) 23): 77 | rats with increases in punished responding [1]; 55: three of four rats | gross sedation ([1]; 55 and 80 mg/kg PO): notable absence of gross sedation | responding during trial periods ([1]; 55 and 80 mg/kg PO): increased responding during trial periods | responding during the VI component ([1]; 55 and 80 mg/kg PO, unpunished responding): not accompanied by decreased responding during the VI component

Structure (SMILES): CSc1ccc2c(c1)N(CCC1CCCCN1C)c1ccccc1S2 (stereo not drawn) [Thioridazine, reference compound]
minimal effective dose (Swiss-Webster male mice): 10 mg/kg

Structure (SMILES): O=c1ccc2ccc(OCCCN3CCN(c4ccccc4)CC3)cc2o1 [drawing 15]
minimal effective dose (Swiss-Webster male mice): 3 mg/kg

Structure (SMILES): Cc1cc(=O)oc2cc(OCCCN3CCN(c4ccccc4)CC3)ccc12 [drawing 16]
minimal effective dose (Swiss-Webster male mice): 1 mg/kg

Structure (SMILES): O=c1ccc2ccc(OCCCN3CCN(c4ncccn4)CC3)cc2o1 [drawing 17]
minimal effective dose (Swiss-Webster male mice): 3 mg/kg

Structure (SMILES): O=c1ccc2ccc(OCCCN3CC=C(c4ccccc4)CC3)cc2o1 [drawing 18]
minimal effective dose (Swiss-Webster male mice): 1 mg/kg

pIC50 (dopamine receptors; read-out: IC50): 7.82
Structure (SMILES): O=c1ccc2ccc(OCCCN3CCN(c4ccccc4)CC3)cc2o1 [drawing 20]

Structure (SMILES): Cc1cc(=O)oc2cc(OCCCN3CCN(c4ccccc4)CC3)ccc12 [drawing 21]
pIC50 (dopamine receptors): 7.30

pIC50 (dopamine receptors; read-out: IC50): 6.03
Structure (SMILES): O=c1ccc2ccc(OCCCN3CCN(c4ncccn4)CC3)cc2o1 [drawing 22]

Structure (SMILES): O=c1ccc2ccc(OCCCN3CC=C(c4ccccc4)CC3)cc2o1 [drawing 23]
pIC50 (dopamine receptors): 7.80
